Like-named read-outs stand apart in the source and are kept apart here.
Tests used:
[1] = Thermodynamic solubility in PBS; assay type: physicochemical; conditions: aqueous buffer, thermodynamic from solid; PBS pH 7.4; 24 hours at RT
Procedure: The thermodynamic solubility of test article was determined in PBS at pH 7.4 in duplicate. The test article (1.5 mg) in PBS was incubated for 24 hours at RT with shaking at 1100 rpm. Sample was then filtered using a vacuum manifold, diluted, and analyzed by LC-MS/MS. Chromatographic conditions: Phenomenex Synergi 4μ Hydro-PR 80A column (2.0×30 mm) coupled with pre-guard column; mobile phase=0.1% formic acid in acetonitrile and 0.1% formic acid in water; flowrate=0.65 mL/min; column temperature=40 degrees C.; injection volume: 10 μL.
Mobile phase: 0.1% formic acid in acetonitrile (A) and 0.1% formic acid in water (B)
(§1) Mass conditions: Turbo spray ion source; ESI ionization model; MRM scan type; Collison gas=6 L/min; Curtain gas=30 L/min; Nebulize gas=50 L/min; Auxiliary gas=50 L/min; Temperature=500 degrees C.; Ion spray voltage=+5500 v (positive MRM).
(§2) The filtered solution was analyzed and quantified against a standard of known concentration in DMSO using UPLC coupled with mass spectral peak identification and quantitation. Solubility values of the test articles were calculated using Microsoft Excel as follows (DF is the dilution factor): […]

[2] = molecular target: T1, MAGL (Mus musculus, UniProt O35678); assay: In vivo MAGL inhibition in mouse brain proteomes after oral gavage; conditions: 5 mg/kg oral gavage, 4 h after administration, read-out: MAGL % inh. 5 mg/kg (mouse)
T1 construct: brain proteomes were prepared and analyzed according to previously established methods; from tissue; host or cells: brain of wild-type C57Bl/6J mice
T1 sequence (O35678 1-303): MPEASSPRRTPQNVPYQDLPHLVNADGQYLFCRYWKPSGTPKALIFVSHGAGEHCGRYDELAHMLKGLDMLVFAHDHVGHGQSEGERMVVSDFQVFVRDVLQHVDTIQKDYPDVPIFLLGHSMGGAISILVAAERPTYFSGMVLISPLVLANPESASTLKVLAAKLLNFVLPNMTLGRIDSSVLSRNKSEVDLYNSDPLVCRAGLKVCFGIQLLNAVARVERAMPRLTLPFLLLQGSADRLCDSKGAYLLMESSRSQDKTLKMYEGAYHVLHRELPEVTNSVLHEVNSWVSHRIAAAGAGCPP
Procedure: Inhibitors were administered to wild-type C57B1/6J by oral gavage in a vehicle of polyethylene glycol. Each animal was sacrificed 4 h following administration and brain proteomes were prepared and analyzed according to previously established methods (See Niphakis, M. J., et al. (2011) ACS Chem. Neurosci. and Long, J. Z., et al. Nat. Chem. Biol. 5:37-44).

[3] = Free fraction in rat plasma and brain homogenate by equilibrium dialysis; assay type: in vitro ADME
Procedure: (§3) Brain disposition was evaluated in male Sprague-Dawley rats (n=3, standard body weight). Briefly, test compound was formulated as a simple suspension, in 0.5% HPMC in water, then administered by oral gavage (5 mg/kg, 5 mL/kg). Four hours post dosing, rats were sacrificed, and terminal blood and brain samples were taken. Blood was obtained via cardiac puncture (0.1 mL) and was added into 0.4 mL CH3CN for precipitation immediately. The samples were stored at −75+/−15° C. prior to analysis. Brain tissue samples were collected after animals were fully exsanguinated, and the tissues were washed with cold saline quickly. After sectioning, brain sections were immediately frozen in liquid nitrogen and stored at −75+/−15° C. prior to analysis. Blood and brain samples were analyzed by LC/MS/MS using an optimized analytical method. Concentrations of test compound in blood and brain were quantified against matrix matched calibration standards. The total blood, plasma, and brain concentration data are presented in Table 2 alongside the calculated brain Kp (total brain concentration:total plasma concentration ratio), the calculated brain kp,uu (unbound brain concentration:unbound plasma concentration ratio), the free fractions in rat plasma and brain, and the in vitro rat blood to plasma distribution profile. The total plasma concentration data were calculated from the total blood concentration data using rat blood to plasma ratio which was measured in vitro (1 μM test compound). For kp,uu determination, the free fraction in rat plasma and brain homogenate were measured in vitro by standard equilibrium dialysis (1 μM test compound and 6 h equilibration against buffer pH 7.4; for rat plasma analysis, 100 mM stock solution of diisopropyl fluorophosphate was added to the pre-warmed rat plasma prior to adding test article).

[4] = In vitro human hepatocyte stability; assay type: in vitro ADME; conditions: cryopreserved human hepatocytes (pooled donor), human hepatocytes 0.5×10^6 cells/mL, read-out: Scaled-up unbound CLint
Procedure: The metabolic stability of test articles (1 μM) in commercially sourced, pooled donor, cryopreserved human hepatocytes (0.5×10^6 cells/mL) was determined in duplicate. The CLint reactions (250 μL) were initiated by addition of test compound. Aliquots (25 μL) were taken at 0, 15, 30, 45, 60, 90, 120 and 240 minutes and then protein crashed with ice-cold acetonitrile containing internal standard then centrifuged (3220 g for 25 minutes). Supernatant was used for LC-MS/MS analysis. The in vitro half-life (in vitro t1/2) was determined from the slope value: in vitro t1/2=−0.693/k. Conversion of the in vitro t1/2 (in min) into the scale-up unbound intrinsic clearance (Scaled-up unbound CLint, in mL/min/kg) was done using the following equation (mean of duplicate determinations), with data shown in Table 5: Scaled-up unbound CLint=kV/N×scaling factor. V=incubation volume (0.25 mL); N=number of hepatocytes per well ([…]). Scaling factors for in vivo intrinsic clearance prediction are listed below: […]

[5] = Kinetic solubility in PBS; assay type: physicochemical; conditions: aqueous buffer, kinetic from dmso stock
Procedure: The kinetic solubility of test articles was determined in PBS at pH 2.0 and pH 7.4 in duplicate. A stock solution of test compound in DMSO (10 mM) was incubated at RT for 2 hours with shaking at 1,100 RPM. The sample was then filtered using a vacuum manifold, diluted, and analyzed by LC-MS/MS. Chromatographic conditions: Phenomenex Synergi 4μ Hydro-PR 80A column (2.0×30 mm) coupled with pre-guard column; mobile phase=0.1% formic acid in acetonitrile and 0.1% formic acid in water; flowrate=0.65 mL/min; column temperature=40° C.; injection volume: 3 μL.
as §1, §2

[6] = In vitro rat blood to plasma ratio; assay type: in vitro ADME; conditions: 1 μM test compound
Procedure: as §3

[7] = Rat Kp, brain disposition after oral gavage; assay type: in vivo
Procedure: as §3

[8] = molecular target: T2, MAGL (Homo sapiens, UniProt Q99685); assay: In vitro competitive activity-based protein profiling (PC3 human cell membrane proteomes); assay type: biochemical
T2 construct: PC3 human cell membrane proteomes; endogenous in cells; host or cells: PC3 human cells (membrane proteome)
T2 sequence (Q99685 1-303): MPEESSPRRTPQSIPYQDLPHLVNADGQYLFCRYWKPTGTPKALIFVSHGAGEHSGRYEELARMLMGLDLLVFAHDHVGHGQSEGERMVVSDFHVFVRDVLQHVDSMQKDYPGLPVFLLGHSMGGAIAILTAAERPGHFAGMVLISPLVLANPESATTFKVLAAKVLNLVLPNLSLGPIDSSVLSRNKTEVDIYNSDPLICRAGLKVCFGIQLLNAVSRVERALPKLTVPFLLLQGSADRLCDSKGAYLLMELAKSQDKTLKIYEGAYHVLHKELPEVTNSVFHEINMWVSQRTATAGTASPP
Procedure: PC3 human cell membrane proteomes (50 µL, 2.0 mg/mL total protein concentration) were preincubated with varying concentrations of inhibitors at 37° C. After 30 min, the ABPP probe JW912-Bodipy (1.0 µL, 50 µM in DMSO) was added and the mixture was incubated for 30 min at room temperature. Reactions were quenched with SDS loading buffer (15 μL-4×) and run on SDS-PAGE. Following gel imaging, serine hydrolase activity was determined by measuring fluorescent intensity of gel bands corresponding to MAGL using ImageJ 1.43u software. Intensities were converted to percent enzyme activity by normalizing to DMSO controls. IC50 values were determined by fitting percent enzyme activities to a non-linear regression, 4-parameter, sigmoidal dose response function in Prism GraphPad.

[9] = PBS pH 2.0, RT, read-out: pH 2 Solubility (kinetic)
[10] = PBS pH 7.4, RT, read-out: pH 7.4 Solubility (kinetic)
[11] = 5 mg/kg oral gavage, 4 h post dosing, mean n = 3

SMILES	inhibition at 5 mg/kg [2] [%]	CLint scaled at 1 μM [4] [mL/min/kg]	solubility kinetic at 2 h [5, 9] [µM]	solubility kinetic at 2 h [5, 10] [µM]	further results
O=C(Nc1cccnc1)[C@H]1CC12CCN(C(=O)OC(C(F)(F)F)C(F)(F)F)CC2 (single isomer, unassigned) [Example 2]	100	34.8	30.3	189	solubility thermodynamic at 24 h [1]: 91.8 µg/mL; fraction unbound at 6 h, 1 μM ([3]; rat brain homogenate, buffer pH 7.4, read-out: Rat brain free fraction): 0.024; fraction unbound at 6 h, 1 μM ([3]; rat plasma, buffer pH 7.4, read-out: Rat plasma free fraction): 0.078; blood plasma ratio at 1 μM [6]: 0.833; Total plasma concentration ([7]; 5 mg/kg oral gavage, 4 h, calculated from total blood concentration using blood to plasma ratio): 0.066 µM; Total blood concentration [7, 11]: 0.049 µM; Total brain concentration [7, 11]: 0.199 µM; Kp at 4 h ([7]; male, Sprague-Dawley, po, total brain concentration:total plasma concentration ratio, 5 mg/kg p.o., 4 h): 3.01; Kp uu at 4 h ([7]; male, Sprague-Dawley, po, unbound brain concentration:unbound plasma concentration ratio, 5 mg/kg p.o., 4 h): 0.925
CP(C)(=O)c1ccc(NC(=O)C2CC23CCN(C(=O)OC(C(F)(F)F)C(F)(F)F)CC3)cn1 (single isomer, unassigned) [Example 20, 1,1,1,3,3,3-hexafluoropropan-2-yl (R or S)-1-((6-(dimethylphosphoryl)pyridin-3-yl)carbamoyl)-6-azaspiro[2.5]octane-6-carboxylate]	0	0.85		310	
O=C(Nc1ccncc1)C1CC12CCN(C(=O)OC(C(F)(F)F)C(F)(F)F)CC2 (single isomer, unassigned) [Example 24, 1,1,1,3,3,3-hexafluoropropan-2-yl (R or S)-1-(pyridin-4-ylcarbamoyl)-6-azaspiro[2.5]octane-6-carboxylate]	90	11.9		197	
O=C(Nc1cncc(F)c1)C1CC12CCN(C(=O)OC(C(F)(F)F)C(F)(F)F)CC2 (single isomer, unassigned) [Example 40, 1,1,1,3,3,3-hexafluoropropan-2-yl (R or S)-1-((5-fluoropyridin-3-yl)carbamoyl)-6-azaspiro[2.5]octane-6-carboxylate]	100	43.2	163	100	MAGL % inh. 1 µM (human PC3) [8]: 100%
O=C(Nc1cncnc1)C1CC12CCN(C(=O)OC(C(F)(F)F)C(F)(F)F)CC2 (single isomer, unassigned) [Example 96, 1,1,1,3,3,3-hexafluoropropan-2-yl (R or S)-1-(pyrimidin-5-ylcarbamoyl)-6-azaspiro[2.5]octane-6-carboxylate]	100	17.1		237	
Cc1cnc(NC(=O)C2CC23CCN(C(=O)OC(C(F)(F)F)C(F)(F)F)CC3)cn1 (single isomer, unassigned) [Example 112, 1,1,1,3,3,3-hexafluoropropan-2-yl (R or S)-1-((5-methylpyrazin-2-yl)carbamoyl)-6-azaspiro[2.5]octane-6-carboxylate]	75	9.59	185	109	
O=C(NCC1CCOCC1)[C@H]1CC12CCN(C(=O)OC(C(F)(F)F)C(F)(F)F)CC2 (single isomer, unassigned) [Example 117]	100	20.6		251	
Cn1ccc(NC(=O)C2CC23CCN(C(=O)OC(C(F)(F)F)C(F)(F)F)CC3)n1 (single isomer, unassigned) [Example 127, 1,1,1,3,3,3-hexafluoropropan-2-yl (R or S)-1-((1-methyl-1H-pyrazol-3-yl)carbamoyl)-6-azaspiro[2.5]octane-6-carboxylate]	75	9.51	275	292	
Cn1nccc1NC(=O)C1CC12CCN(C(=O)OC(C(F)(F)F)C(F)(F)F)CC2 (single isomer, unassigned) [Example 135, 1,1,1,3,3,3-hexafluoropropan-2-yl (R or S)-1-((1-methyl-1H-pyrazol-5-yl)carbamoyl)-6-azaspiro[2.5]octane-6-carboxylate]	100	16.8			
O=C(Nc1nccs1)C1CC12CCN(C(=O)OC(C(F)(F)F)C(F)(F)F)CC2 (single isomer, unassigned) [Example 138, 1,1,1,3,3,3-hexafluoropropan-2-yl (R or S)-1-(thiazol-2-ylcarbamoyl)-6-azaspiro[2.5]octane-6-carboxylate]	75	40.5			

Source: US11434222B2, “MAGL inhibitors” (H. LUNDBECK A/S, priority 2020, dated 2022)
